In patent US20170211043A1, “METHOD FOR IN VITRO PRODUCTION OF ADIPOCYTE PROGENITORS AND ADIPOCYTES” (UNIVERSITE PIERRE ET MARIE CURIE (PARIS 6), priority 2014, published 2017):

Assays:
Format in all cases: cell-based, human
[1] = test system: insulin receptor (IR) and AKT/PKB; assay: Short insulin treatment of adipocytes derived from iPS cells, phospho-specific Western blot; settings: adipocytes after 20 days of differentiation
Experimental: The adipocytes were lysed in a suitable volume of lysis buffer (50 mM Tris pH 7.4, 0.27 M sucrose, 1 mM Na-orthovanadate pH 10, 1 mM EDTA, 1 mM EGTA, 10 mM (3-glycerophosphate, 50 mM NaF, 5 mM pyrophosphate, 1% (w/v) Triton X-100, 0.1% (w/v) 2-β-mercaptoethanol, and protease inhibitors). The total lysates were centrifuged (15,000 g, 4° C. for 10 minutes) then stored at −80° C. until use. The protein concentrations were determined using the Bradford method with bovine albumin as the standard. The samples underwent SDS/PAGE migration on polyacrylamide gels and then were transferred onto nitrocellulose membranes (Amersham Biosciences), blocked for 2 hours at room temperature in TBS-T buffer (50 mM Tris-HCl pH 7.6, 150 mM NaCl, 0.1% (v/v) Tween-20) supplemented with 5% (w/v) skimmed milk or BSA, and incubated with the various antibodies specific to the protein of interest (Table 1 above).
The nitrocellulose membranes were rinsed 3×5 minutes in TBS-T buffer before being incubated with the secondary antibody coupled to peroxidase. The signals were detected using chemiluminescence (Pierce-Perbio Biotechnologies) by exposure on autoradiographic film (Kodak).

beige adipocytes = assay: MitoTracker staining of adipocytes after 8-Br-cAMP; settings: after 48 hours, vs basal
Experimental: (§1) The adipocytes were optionally treated for 6 hours with 10^−5 M isoproterenol (Sigma), then the protein samples were collected. For a longer stimulation, the adipocytes were treated with a non-metabolizable cAMP analogue, 8-Br-cAMP (Sigma), for 48 hours.
Living cells at D20 of differentiation were incubated with 1 μM MitoTracker® Red CMXRos (Life Technologies®) for 45 minutes in the dark at 37° C., 5% CO2. After rinsing twice with PBS, the cells were fixed with 3% PFA for 15 minutes at room temperature. The preparation was then incubated for 15 minutes with 1 ng/mL BODIPY 493/503 (Molecular Probes®, D-3922) then rinsed 3 times with PBS before being incubated for 5 minutes in DAPI (4′-6-diamidino-2-phenylindole, VWR). After applying the mounting medium (Fluoromount-G™, Southern Biotech), the cells were observed using a confocal microscope (Leica).

[2] = test system: PGC1α, PRDM16, PPARα and DIO2; assay: Real-time quantitative PCR of thermogenesis genes after 8-Br-cAMP; settings: after 48 hours, D20 adipocytes, vs basal
Experimental: Total RNAs were extracted using the NucleoSpin RNA kit (Macherey Nagel) according to the manufacturer's recommendations. The concentration of total RNAs extracted and their contamination by solvents or salts were evaluated by microspectrophotometry (Nanodrop). Reverse transcription was carried out using the High Capacity cDNA Reverse Transcription Kit (Applied Biosystems). Quantitative PCR was then carried out by adding 2 μL of cDNA diluted 10 times, 10 μL of SYBR Green I PCR mix (Roche Diagnostics, including DNA polymerase, dNTPs, 3 mM MgCl2 and SYBR Green fluorescent probe), 0.2 μM sense primer and 0.2 μM antisense primer (Table 2 below). The reference gene GAPDH was used to normalize the expression of the genes of interest.
as §1

Compound	phosphorylation of the insulin receptor (IR) subunit and its target AKT [1]	number of mitochondria in the beige adipocytes (beige adipocytes)	expression of genes involved in thermogenesis (PGC1α, PRDM16, PPARα, DIO2) [2]
insulin	strong phosphorylation		
Nc1ncnc2c1nc(Br)n2[C@@H]1O[C@@H]2COP(=O)(O)O[C@H]2[C@H]1O [8-Br-cAMP]		increase in the number of mitochondria	increase
